{"source": "patent US7138361B2", "about": "“Herbicidal heterocycles” (E. I. du Pont de Nemours and Company, priority 2000, dated 2006)", "experiment_in_all_cases": "Test C preemergence", "format_in_all_cases": "in vivo", "key": {"[1]": {"test_system": "Nightshade", "settings": "scale 0 to 100, 0 no effect, 100 complete control"}, "[2]": {"test_system": "Sunflower", "settings": "Rate 125 g/ha; scale 0 to 100, 0 no effect, 100 complete control"}, "[3]": {"test_system": "Surinam grass (Brachiaria decumbens)", "settings": "for Plant response rating, Surinam grass: scale 0 to 100, 0 no effect, 100 complete control; for Plant response rating (0 to 100), Surinam grass: preemergence, visual evaluation after 12 to 14 days", "how_it_was_run": "(§1)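 Plants held in greenhouse for 12–14 days post-application are scored by eye against controls on a 0–100 control scale. Application timing: preemergence on sown seed, or postemergence on 2–18 cm plants.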"}, "[4]": {"test_system": "bermudagrass (Cynodon dactylon)", "settings": "for Plant response rating, Bermudagrass: scale 0 to 100, 0 no effect, 100 complete control; for Plant response rating (0 to 100 where 0 is no effect and 100 is complete control), Bermudagrass: preemergence, visual evaluation after 12 to 14 days", "how_it_was_run": "as §1"}, "[5]": {"test_system": "cocklebur (Xanthium strumarium)", "settings": "for Plant response rating, Cocklebur: scale 0 to 100, 0 no effect, 100 complete control; for Plant response rating (0 to 100), Cocklebur: preemergence, visual evaluation after 12 to 14 days", "how_it_was_run": "as §1"}, "[6]": {"test_system": "common ragweed (Ambrosia elatior)", "settings": "for Plant response rating, Ragweed, Common: scale 0 to 100, 0 no effect, 100 complete control", "how_it_was_run": "as §1"}, "[7]": {"test_system": "corn (Zea mays)", "settings": "for Plant response rating, Corn: scale 0 to 100, 0 no effect, 100 complete control; for Plant response rating (0 to 100), Corn: preemergence, visual evaluation after 12 to 14 days", "how_it_was_run": "as §1"}, "[8]": {"test_system": "crabgrass (Digitaria sanguinalis)", "settings": "for Plant response rating, Crabgrass: scale 0 to 100, 0 no effect, 100 complete control; for Plant response rating (0 to 100), Crabgrass: preemergence, visual evaluation after 12 to 14 days", "how_it_was_run": "as §1"}, "[9]": {"test_system": "giant foxtail (Setaria faberii)", "settings": "for Plant response rating, Foxtail, Giant: scale 0 to 100, 0 no effect, 100 complete control; for Plant response rating (0 to 100), Foxtail, Giant: preemergence, visual evaluation after 12 to 14 days", "how_it_was_run": "as §1"}, "[10]": {"test_system": "goosegrass (Eleusine indica)", "settings": "for Plant response rating, Goosegrass: scale 0 to 100, 0 no effect, 100 complete control; for Plant response rating (0 to 100), Goosegrass: preemergence, visual evaluation after 12 to 14 days", "how_it_was_run": "as §1"}, "[11]": {"test_system": "johnsongrass (Sorghum halepense)", "settings": "for Plant response rating, Johnsongrass: scale 0 to 100, 0 no effect, 100 complete control; for Plant response rating (0 to 100), Johnsongrass: preemergence, visual evaluation after 12 to 14 days", "how_it_was_run": "as §1"}, "[12]": {"test_system": "kochia (Kochia scoparia)", "settings": "for Plant response rating, Kochia: scale 0 to 100, 0 no effect, 100 complete control; for Plant response rating (0 to 100), Kochia: preemergence, visual evaluation after 12 to 14 days", "how_it_was_run": "as §1"}, "[13]": {"test_system": "lambsquarters (Chenopodium album)", "settings": "for Plant response rating, Lambsquarters: scale 0 to 100, 0 no effect, 100 complete control", "how_it_was_run": "as §1"}, "[14]": {"test_system": "morningglory (Ipomoea hederacea)", "settings": "for Plant response rating, Morningglory: scale 0 to 100, 0 no effect, 100 complete control", "how_it_was_run": "as §1"}, "[15]": {"test_system": "pigweed (Amaranthus retroflexus)", "settings": "for Plant response rating, Pigweed: scale 0 to 100, 0 no effect, 100 complete control", "how_it_was_run": "as §1"}, "[16]": {"test_system": "soybean (Glycine max)", "settings": "for Plant response rating, Soybean: scale 0 to 100, 0 no effect, 100 complete control", "how_it_was_run": "as §1"}, "[17]": {"test_system": "velvetleaf (Abutilon theophrasti)", "settings": "for Plant response rating, Velvetleaf: scale 0 to 100, 0 no effect, 100 complete control", "how_it_was_run": "as §1"}, "[18]": {"test_system": "woolly cupgrass (Eriochloa villosa)", "settings": "for Plant response rating, Cupgrass, Woolly: scale 0 to 100, 0 no effect, 100 complete control; for Plant response rating (0 to 100), Cupgrass, Woolly: preemergence, visual evaluation after 12 to 14 days", "how_it_was_run": "as §1"}, "[19]": {"test_system": "yellow nutsedge (Cyperus esculentus)", "settings": "for Plant response rating, Nutsedge: scale 0 to 100, 0 no effect, 100 complete control", "how_it_was_run": "as §1"}, "[20]": {"test_system": "Nightshade", "settings": "Rate 500 g/ha, visual evaluation after 12 to 14 days"}, "[21]": {"settings": "preemergence, Rate 500 g/ha, visual evaluation after 12 to 14 days"}}}
{"compound": "Cc1ccc(N2CCC(n3ccc(C(C)(C)C)n3)C2=O)cc1OC(F)F", "note": "(stereo not drawn) [Compound 79]", "values": [{"measurement": "Plant response rating, Nightshade", "setting": "[1]; Rate 62 g/ha", "value": 20}, {"measurement": "Plant response rating, Nightshade", "setting": "[1]; Rate 125 g/ha", "value": 50}, {"measurement": "Plant response rating, Nightshade", "setting": "[1]; Rate 250 g/ha", "value": 50}, {"measurement": "Plant response rating, Sunflower", "setting": "[2]", "value": 0}, {"measurement": "Plant response rating, Surinam grass", "setting": "[3]; Rate 62 g/ha", "value": 0}, {"measurement": "Plant response rating, Surinam grass", "setting": "[3]; Rate 125 g/ha", "value": 20}, {"measurement": "Plant response rating (0 to 100), Surinam grass", "setting": "[3]; Rate 250 g/ha", "value": 60}, {"measurement": "Plant response rating (0 to 100), Surinam grass", "setting": "[3]; Rate 500 g/ha", "value": 100}, {"measurement": "Plant response rating, Bermudagrass", "setting": "[4]; Rate 62 g/ha", "value": 100}, {"measurement": "Plant response rating, Bermudagrass", "setting": "[4]; Rate 125 g/ha", "value": 100}, {"measurement": "Plant response rating (0 to 100 where 0 is no effect and 100 is complete control), Bermudagrass", "setting": "[4]; Rate 250 g/ha", "value": 100}, {"measurement": "Plant response rating (0 to 100 where 0 is no effect and 100 is complete control), Bermudagrass", "setting": "[4]; Rate 500 g/ha", "value": 100}, {"measurement": "Plant response rating, Cocklebur", "setting": "[5]; Rate 62 g/ha", "value": 0}, {"measurement": "Plant response rating, Cocklebur", "setting": "[5]; Rate 125 g/ha", "value": 0}, {"measurement": "Plant response rating (0 to 100), Cocklebur", "setting": "[5]; Rate 250 g/ha", "value": 0}, {"measurement": "Plant response rating (0 to 100), Cocklebur", "setting": "[5]; Rate 500 g/ha", "value": 30}, {"measurement": "Plant response rating, Ragweed, Common", "setting": "[6]; Rate 125 g/ha", "value": 100}, {"measurement": "Plant response rating (0 to 100), Ragweed, Common", "setting": "[6]; [21]", "value": 100}, {"measurement": "Plant response rating, Ragweed, Common", "setting": "[6]; preemergence, Rate 250 g/ha", "value": 100}, {"measurement": "Plant response rating, Corn", "setting": "[7]; Rate 62 g/ha", "value": 0}, {"measurement": "Plant response rating, Corn", "setting": "[7]; Rate 125 g/ha", "value": 0}, {"measurement": "Plant response rating (0 to 100), Corn", "setting": "[7]; Rate 250 g/ha", "value": 0}, {"measurement": "Plant response rating (0 to 100), Corn", "setting": "[7]; Rate 500 g/ha", "value": 0}, {"measurement": "Plant response rating, Crabgrass", "setting": "[8]; Rate 62 g/ha", "value": 100}, {"measurement": "Plant response rating, Crabgrass", "setting": "[8]; Rate 125 g/ha", "value": 100}, {"measurement": "Plant response rating (0 to 100), Crabgrass", "setting": "[8]; Rate 250 g/ha", "value": 100}, {"measurement": "Plant response rating (0 to 100), Crabgrass", "setting": "[8]; Rate 500 g/ha", "value": 100}, {"measurement": "Plant response rating, Foxtail, Giant", "setting": "[9]; Rate 62 g/ha", "value": 0}, {"measurement": "Plant response rating, Foxtail, Giant", "setting": "[9]; Rate 125 g/ha", "value": 0}, {"measurement": "Plant response rating (0 to 100), Foxtail, Giant", "setting": "[9]; Rate 250 g/ha", "value": 0}, {"measurement": "Plant response rating (0 to 100), Foxtail, Giant", "setting": "[9]; Rate 500 g/ha", "value": 0}, {"measurement": "Plant response rating, Goosegrass", "setting": "[10]; Rate 62 g/ha", "value": 80}, {"measurement": "Plant response rating, Goosegrass", "setting": "[10]; Rate 125 g/ha", "value": 90}, {"measurement": "Plant response rating (0 to 100), Goosegrass", "setting": "[10]; Rate 250 g/ha", "value": 100}, {"measurement": "Plant response rating (0 to 100), Goosegrass", "setting": "[10]; Rate 500 g/ha", "value": 100}, {"measurement": "Plant response rating, Johnsongrass", "setting": "[11]; Rate 62 g/ha", "value": 0}, {"measurement": "Plant response rating, Johnsongrass", "setting": "[11]; Rate 125 g/ha", "value": 0}, {"measurement": "Plant response rating (0 to 100), Johnsongrass", "setting": "[11]; Rate 250 g/ha", "value": 0}, {"measurement": "Plant response rating (0 to 100), Johnsongrass", "setting": "[11]; Rate 500 g/ha", "value": 0}, {"measurement": "Plant response rating, Kochia", "setting": "[12]; Rate 62 g/ha", "value": 100}, {"measurement": "Plant response rating, Kochia", "setting": "[12]; Rate 125 g/ha", "value": 100}, {"measurement": "Plant response rating (0 to 100), Kochia", "setting": "[12]; Rate 250 g/ha", "value": 100}, {"measurement": "Plant response rating (0 to 100), Kochia", "setting": "[12]; Rate 500 g/ha", "value": 100}, {"measurement": "Plant response rating, Lambsquarters", "setting": "[13]; Rate 62 g/ha", "value": 100}, {"measurement": "Plant response rating, Lambsquarters", "setting": "[13]; Rate 125 g/ha", "value": 100}, {"measurement": "Plant response rating (0 to 100), Lambsquarters", "setting": "[13]; [21]", "value": 100}, {"measurement": "Plant response rating, Lambsquarters", "setting": "[13]; preemergence, Rate 250 g/ha", "value": 100}, {"measurement": "Plant response rating, Morningglory", "setting": "[14]; Rate 62 g/ha", "value": 0}, {"measurement": "Plant response rating, Morningglory", "setting": "[14]; Rate 125 g/ha", "value": 0}, {"measurement": "Plant response rating (0 to 100), Morningglory", "setting": "[14]; [21]", "value": 70}, {"measurement": "Plant response rating, Morningglory", "setting": "[14]; preemergence, Rate 250 g/ha", "value": 30}, {"measurement": "Plant response rating, Pigweed", "setting": "[15]; Rate 125 g/ha", "value": 10}, {"measurement": "Plant response rating (0 to 100), Pigweed", "setting": "[15]; [21]", "value": 100}, {"measurement": "Plant response rating, Pigweed", "setting": "[15]; preemergence, Rate 250 g/ha", "value": 20}, {"measurement": "Plant response rating, Soybean", "setting": "[16]; Rate 125 g/ha", "value": 0}, {"measurement": "Plant response rating (0 to 100), Soybean", "setting": "[16]; [21]", "value": 50}, {"measurement": "Plant response rating, Soybean", "setting": "[16]; preemergence, Rate 250 g/ha", "value": 0}, {"measurement": "Plant response rating, Velvetleaf", "setting": "[17]; Rate 125 g/ha", "value": 0}, {"measurement": "Plant response rating (0 to 100), Velvetleaf", "setting": "[17]; [21]", "value": 50}, {"measurement": "Plant response rating, Velvetleaf", "setting": "[17]; preemergence, Rate 250 g/ha", "value": 20}, {"measurement": "Plant response rating, Cupgrass, Woolly", "setting": "[18]; Rate 62 g/ha", "value": 90}, {"measurement": "Plant response rating, Cupgrass, Woolly", "setting": "[18]; Rate 125 g/ha", "value": 90}, {"measurement": "Plant response rating (0 to 100), Cupgrass, Woolly", "setting": "[18]; Rate 250 g/ha", "value": 100}, {"measurement": "Plant response rating (0 to 100), Cupgrass, Woolly", "setting": "[18]; Rate 500 g/ha", "value": 100}, {"measurement": "Plant response rating, Nutsedge", "setting": "[19]; Rate 62 g/ha", "value": 0}, {"measurement": "Plant response rating, Nutsedge", "setting": "[19]; Rate 125 g/ha", "value": 0}, {"measurement": "Plant response rating (0 to 100), Nutsedge", "setting": "[19]; [21]", "value": 0}, {"measurement": "Plant response rating, Nutsedge", "setting": "[19]; preemergence, Rate 250 g/ha", "value": 0}, {"measurement": "Plant response rating (0 to 100), Nightshade", "setting": "[20]", "value": 90}]}
